Read-outs that look alike come from different tables or passages of the source.
Key:
[1] = test system: MSS colorectal cancer HT-29 cell line; experiment: 2D anti-proliferative activity, MSS HT-29 cells (CTG, 5 days); assay type: cell-based
Procedure: The molecules of the present disclosure were tested for their anti-proliferative activity against MSS tumor cells.
(§1) The MSS HT-29 colorectal cancer cells were cultured in McCoy's 5A medium containing 10% FBS and 1% penicillin-streptomycin in a 37° C., 5% CO2 constant temperature incubator. A 40 μL cell suspension was added to each well of a 384-well microplate. Using Echo, 40 nL of compounds at different concentrations was dispensed into each well, followed by incubation in a 37° C., 5% CO2 constant temperature incubator for 5 days. Then, 40 μL of CTG solution (Promega, Cat No. G7573) was added to each well, and the plate was incubated in the dark in a 37° C., 5% CO2 constant temperature incubator for 30 minutes. Luminescence was measured using an Envision multi-function microplate reader (Perkin Elmer, Model: Envision 2104). The luminescent signal was proportional to the amount of ATP in the system, and the amount of ATP directly represented the number of living cells in the system.

WRN helicase = WRN helicase (Homo sapiens, UniProt Q14191); experiment: WRN helicase hydrolysis/unwinding of double-stranded DNA (fluorescence); assay type: biochemical
Procedure: The activity of the molecules of the present disclosure on the hydrolysis of double-stranded PP-6TR DNA by WRN helicase was tested.
The working solution and buffer were prepared, and the test compound was dissolved in DMSO followed by a4-fold dilution (with a final concentration of 10 μM as the starting concentration). Then, 0.2 μL of the test compound solution was added to a384-well plate, followed by 10 μL of (2×) WRN enzyme solution. The mixture was incubated in the dark for 30 minutes, after which 10 μL of substrate detection solution containing double-stranded DNA was added to initiate the reaction (DNA length: 19 bp, labeled with TAMRA at the 3′ end and BHQ2 at the 5′ end). The mixture was incubated at room temperature for 60 minutes. The inhibitory activity (IC50) against the WRN enzyme was calculated based on the fluorescence change (Ex530/Em590) between the blank group (DMSO) and the compound group.

[2] = test system: MSI-H colorectal cancer SW48 cell line; experiment: 2D anti-proliferative activity, MSI-H SW48 cells (CTG, 5 days); assay type: cell-based; conditions: for IC50: 5 days; for inhibition at 38.15 pM: 0.038146973 nM; for inhibition at 0.000152588 µM: 0.152587891 nM; for inhibition at 0.000610352 µM: 0.610351563 nM; for inhibition at 0.00244141 µM: 2.44140625 nM; for inhibition at 0.00976562 µM: 9.765625 nM; for inhibition at 0.0390625 µM: 39.0625 nM; for inhibition at 0.15625 µM: 156.25 nM; for inhibition at 0.625 µM: 625 nM; for inhibition at […]: 2500 nM; for inhibition at 10 µM: 10000 nM
Procedure: The molecules of the present disclosure were tested for their anti-proliferative activity against MSI-H tumor cells.
The proliferation of tumor cells with microsatellite instability MSI-H is sensitive to WRN inhibitors, while the proliferation of microsatellite stable (MSS) tumor cells is insensitive to WRN inhibitors. By testing the activities of the two, it is shown that the molecules of the present disclosure have an inhibitory and synthetic lethal effect on WRN at the cellular level.
as §1, with “MSI-unstable SW48” for “MSS HT-29”, “RPMI 1640” for “McCoy's 5A”

[3] = Liver microsome stability test; assay type: in vitro ADME; conditions: human liver microsomes 0.5 mg/mL, compound 1 μM, NADPH 1 mM, 60 minutes; for microsomal CLint at 1 μM: read-out: Human Clint μL/min/mg Protein
Procedure: The liver microsome stability test of the compounds is as follows:
The compounds of the present disclosure were subjected to a liver microsome stability test. The compounds to be tested were co-incubated with liver microsomes of different species with or without the addition of NADPH. The final concentration of the compounds to be tested in the test system was 1 μM, the final concentration of NADPH was 1 mM, and the final concentration of liver microsomes was 0.5 mg/mL.

[4] = Pharmacokinetic evaluation in mice; assay type: in vivo, CD1 female mice; conditions: for AUC(0-t): read-out: AUC0-24
Procedure: CD1 female mice were used as test animals and the drug was administered orally/intravenously (oral dosage: 10 mg/kg, intravenous dosage: 2 mg/kg).
Assay protocol: The oral group consisted of 3 mice per group (vehicle: 10% Hβ-CD-pH7.4), and the intravenous group consisted of 3 mice per group. […] The blood concentrations in plasma after oral and intravenous administration of mice were determined by LC/MS/MS, respectively.

[5] = Homo sapiens, read-out: Average value/ Inhibition rate
[6] = Homo sapiens, read-out: Test 1/ Inhibition rate
[7] = Homo sapiens, read-out: Test 2/ Inhibition rate
[8] = female, CD1, mouse, plasma, IV 2 mg/kg
[9] = female, CD1, mouse, plasma, PO 10 mg/kg

Sequence of WRN helicase (Q14191 whole entry): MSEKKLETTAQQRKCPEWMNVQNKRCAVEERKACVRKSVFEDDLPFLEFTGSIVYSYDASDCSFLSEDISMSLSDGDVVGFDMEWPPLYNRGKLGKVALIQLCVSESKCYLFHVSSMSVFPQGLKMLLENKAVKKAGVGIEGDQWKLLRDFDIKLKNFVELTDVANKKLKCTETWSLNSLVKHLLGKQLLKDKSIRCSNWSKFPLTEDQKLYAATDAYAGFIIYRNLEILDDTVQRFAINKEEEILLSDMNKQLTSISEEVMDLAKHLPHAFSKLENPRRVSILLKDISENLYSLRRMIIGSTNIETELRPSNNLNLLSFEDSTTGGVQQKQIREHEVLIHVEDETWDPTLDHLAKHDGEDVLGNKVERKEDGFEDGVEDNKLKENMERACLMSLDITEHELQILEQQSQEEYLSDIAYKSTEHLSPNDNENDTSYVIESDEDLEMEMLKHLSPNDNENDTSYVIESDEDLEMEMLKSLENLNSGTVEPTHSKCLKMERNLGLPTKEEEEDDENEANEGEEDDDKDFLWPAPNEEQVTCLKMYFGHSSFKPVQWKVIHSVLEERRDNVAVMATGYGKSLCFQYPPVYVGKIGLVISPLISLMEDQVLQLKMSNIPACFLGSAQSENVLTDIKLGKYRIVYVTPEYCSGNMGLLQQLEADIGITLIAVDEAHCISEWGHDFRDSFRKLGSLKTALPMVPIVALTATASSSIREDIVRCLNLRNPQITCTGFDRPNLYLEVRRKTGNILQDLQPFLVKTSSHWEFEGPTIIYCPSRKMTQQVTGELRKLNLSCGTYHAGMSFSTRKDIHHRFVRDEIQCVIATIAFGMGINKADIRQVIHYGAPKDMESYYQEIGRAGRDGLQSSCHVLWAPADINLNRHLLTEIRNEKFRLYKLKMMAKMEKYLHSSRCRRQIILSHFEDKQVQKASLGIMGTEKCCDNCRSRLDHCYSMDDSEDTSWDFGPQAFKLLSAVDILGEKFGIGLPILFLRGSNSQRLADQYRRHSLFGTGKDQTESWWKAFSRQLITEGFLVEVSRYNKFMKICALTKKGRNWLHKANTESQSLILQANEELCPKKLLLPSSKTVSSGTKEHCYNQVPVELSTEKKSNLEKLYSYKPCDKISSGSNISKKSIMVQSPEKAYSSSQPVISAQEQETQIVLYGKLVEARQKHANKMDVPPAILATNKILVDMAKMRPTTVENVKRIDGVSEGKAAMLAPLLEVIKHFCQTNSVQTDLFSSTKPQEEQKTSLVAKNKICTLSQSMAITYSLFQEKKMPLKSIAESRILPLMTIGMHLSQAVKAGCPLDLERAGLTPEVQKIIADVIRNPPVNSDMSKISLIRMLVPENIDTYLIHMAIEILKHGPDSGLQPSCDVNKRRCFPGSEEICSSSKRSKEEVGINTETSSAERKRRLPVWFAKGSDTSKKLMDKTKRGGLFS

`CCc1c(N2CCN(C(=O)c3ncccc3O)CC2)c(=O)n2nc(N3CCOCC3)nc2n1CC(=O)Nc1ccc(C(F)(F)F)c2ccsc12` [Compound H9] showed an IC50 ([1]; Homo sapiens, 120 h) of over 10000 nM, an IC50 (WRN helicase) of 1.7 nM and an IC50 ([2]; Homo sapiens, 120 h) of 193 nM. For the same compound, the CLint scaled at 1 μM [3] was 13 mL/min/kg and the microsomal CLint at 1 μM [3] was 10.3 µL/min/mg.

With `CCc1c(N2CCN(C(=O)c3nccc(Cl)c3O)CC2)c(=O)n2nc(C3=CCOCC3)nc2n1CC(=O)Nc1ccc(C(F)(F)F)c2ccsc12` [Compound H19] the IC50 ([1]; Homo sapiens, 120 h) was over 10000 nM, the IC50 (WRN helicase) was 0.9 nM and the IC50 ([2]; Homo sapiens, 120 h) was 125 nM. It also gave a CLint scaled at 1 μM [3] of 0.73 mL/min/kg and a microsomal CLint at 1 μM [3] of 0.58 µL/min/mg.

In the case of `CCc1c(N2CCN(C(=O)c3ncnc(C)c3O)CC2)c(=O)n2nc(C3=CCOCC3)nc2n1CC(=O)Nc1ccc(C(F)(F)F)c2sccc12` [Compound H13], the IC50 ([1]; Homo sapiens, 120 h) is reported as over 10000 nM, the IC50 (WRN helicase) is reported as 1.2 nM and the “inhibitory activity on SW48 cells” value ([2]; 39 nM) is reported as “high inhibitory activity”. It also gave an inhibition at 38.15 pM [2, 5] of -1.31%, an inhibition at 38.15 pM [2, 6] of -1.51% and an inhibition at 38.15 pM [2, 7] of -1.1%. The inhibition at 0.000152588 µM [2, 5] was 0.853%, the inhibition at 0.000152588 µM [2, 6] was 2.48% and the inhibition at 0.000152588 µM [2, 7] was -0.775%. For the same compound, the inhibition at 0.000610352 µM [2, 5] was -1.43%, the inhibition at 0.000610352 µM [2, 6] was -3.56% and the inhibition at 0.000610352 µM [2, 7] was 0.706%. For the same compound, the inhibition at 0.00244141 µM [2, 5] was -3.17%, the inhibition at 0.00244141 µM [2, 6] was 0.0291% and the inhibition at 0.00244141 µM [2, 7] was -6.36%. For the same compound, the inhibition at 0.00976562 µM [2, 5] was 0.332%, the inhibition at 0.00976562 µM [2, 6] was -3.9% and the inhibition at 0.00976562 µM [2, 7] was 4.57%. The inhibition at 0.0390625 µM [2, 5] was 76.4%, the inhibition at 0.0390625 µM [2, 6] was 76.2% and the inhibition at 0.0390625 µM [2, 7] was 76.6%. The inhibition at 0.15625 µM [2, 5] was 97.6%, the inhibition at 0.15625 µM [2, 6] was 98.6% and the inhibition at 0.15625 µM [2, 7] was 96.6%. The inhibition at 0.625 µM [2, 5] was 99.4%, the inhibition at 0.625 µM [2, 6] was 99.6% and the inhibition at 0.625 µM [2, 7] was 99.2%. For the same compound, the inhibition at […] [2, 5] was 99.6%, the inhibition at […] [2, 6] was 99.7% and the inhibition at […] [2, 7] was 99.5%. It also gave an inhibition at 10 µM [2, 5] of 101%, an inhibition at 10 µM [2, 6] of 103% and an inhibition at 10 µM [2, 7] of 100%. The IC50 ([2]; Homo sapiens, 120 h) was 28 nM, the F ([4]; PO 10 mg/kg vs IV 2 mg/kg) was 24% and the clearance [4, 8] was 42.9 mL/min/kg. It also gave an AUC(0-t) [4, 8] of 722 ng·h/mL, a C0 ([4]; female, CD1, mouse, plasma, IV 2 mg/kg, read-out: C0) of 2530 ng/mL and a half-life [4, 9] of 66 min. For the same compound, the AUC(0-t) [4, 9] was 943 ng·h/mL, the Cmax ([4]; female, CD1, mouse, plasma, PO 10 mg/kg, read-out: Cmax) was 551 ng/mL and the Tmax ([4]; female, CD1, mouse, plasma, PO 10 mg/kg, read-out: Tmax) was 30 min. The CLint scaled at 1 μM [3] was 7.9 mL/min/kg and the microsomal CLint at 1 μM [3] was 6.3 µL/min/mg.

`CCc1c(N2CCN(C(=O)c3ncnc(C)c3O)CC2)c(=O)n2nc(C3=CCOCC3)nc2n1CC(=O)Nc1ccc(C(F)(F)F)c2ncsc12` [Compound H14] showed an IC50 ([1]; Homo sapiens, 120 h) of over 10000 nM, an IC50 (WRN helicase) of 3.9 nM and an IC50 ([2]; Homo sapiens, 120 h) of 2200 nM.

`CCc1c(N2CCN(C(=O)c3ncccc3O)CC2)c(=O)n2nc(C3=CCOCC3)nc2n1CC(=O)Nc1ccc(C(F)(F)F)c2ccsc12` [Compound H2] gave an IC50 ([1]; Homo sapiens, 120 h) of 3500 nM, an IC50 (WRN helicase) of 1.4 nM and an IC50 ([2]; Homo sapiens, 120 h) of 131 nM. The CLint scaled at 1 μM [3] was 19.7 mL/min/kg and the microsomal CLint at 1 μM [3] was 15.7 µL/min/mg.

For `CCc1c(N2CCN(C(=O)c3ncccc3O)CC2)c(=O)n2nc(C3=CCC(OC)CC3)nc2n1CC(=O)Nc1ccc(C(F)(F)F)c2ccsc12` (stereo not drawn) [Compound H8], the IC50 ([1]; Homo sapiens, 120 h) was 1480 nM, the IC50 (WRN helicase) was 1.3 nM and the IC50 ([2]; Homo sapiens, 120 h) was 124 nM.

For `CCc1c(N2CCN(C(=O)c3nccc(F)c3O)CC2)c(=O)n2nc(C3=CCOCC3)nc2n1CC(=O)Nc1ccc(C(F)(F)F)c2ccsc12` [Compound H20], the IC50 ([1]; Homo sapiens, 120 h) was over 10000 nM, the IC50 (WRN helicase) was 1 nM and the IC50 ([2]; Homo sapiens, 120 h) was 75 nM. For the same compound, the CLint scaled at 1 μM [3] was 25.9 mL/min/kg and the microsomal CLint at 1 μM [3] was 20.6 µL/min/mg.

Compound `CCc1c(N2CCN(C(=O)c3ncnc(C)c3O)CC2)c(=O)n2nc(C3=CCOCC3)nc2n1CC(=O)Nc1ccc(C(F)(F)F)c2c1OCC2` [Compound H3] has an IC50 [1] of over 10000 nM, an IC50 (WRN helicase) of 1.6 nM and an IC50 [2] of 216 nM. For the same compound, the “Human Clint μL/min/mg Protein” value [3] was 2.2 μL/min/mg Protein and the “Human Clint/(mL/min/kg)” value [3] was 2.7 mL/min/kg.

`CCc1c(N2CCN(C(=O)c3ncnc(C)c3O)CC2)c(=O)n2nc(C3=CCOCC3)nc2n1CC(=O)Nc1ccc(C(F)(F)F)cc1SC` [Compound H4] showed an IC50 ([1]; Homo sapiens, 120 h) of over 10000 nM, an IC50 (WRN helicase) of 71 nM and an IC50 ([2]; Homo sapiens, 120 h) of 2560 nM.

Reference: patent US20260216197A1, “WRN HELICASE INHIBITOR” (SUZHOU PUHE BIOPHARMA CO., LTD., priority 2022, published 2026)
